{"source": "patent US8420677B2", "about": "“Use of 3,3′-diindolylmethane” (priority 2008, dated 2013)", "tested_on": "D257A mice", "assay": "Auditory brainstem response (ABR) hearing function test in D257A mice fed the compounds", "assay_type": "in vivo", "source_text": "The test system was D257A−/− (D257A) mice that express a proofreading-deficient version of the mitochondrial DNA polymerase γ (POLG). These mice display features of accelerated aging including age related hearing loss (presbycusis). Hearing loss can be monitored by an elevation in auditory-evoked brainstem response (Kujoth et al., Science 309, 481-484, 2005).\nHeterozygous D257A (−1+) mice were bred to generate homozogous D257A (−/−) mice, denoted D257A hereafter. Animals were identified with specific numbering and ear clippings. D257A mice were placed in various dietary regimens following PCR based genotyping and weaning at 3 weeks of age. Mice received a diet based on AIN-93M maintenance purified diet (TestDiet, Richmond, USA), with neither no supplementation (Control group), or supplementation with DIM (40 mg/kg, BioResponse LLC Boulder, Colo.), (−)-epigallocatechin gallate, or (EGCG) (300 mg/kg, DSM Nutritional Products, Switzerland).\nHearing function was tested in 9 month-old D257A mice receiving the various compounds. Auditory brainstem responses (ABRs) were measured with a tone burst stimulus (8, 16 and 32 kHz) using an ABR recording system (Intelligent Hearing System, Miami Fla.). Animals were anesthetized with a mixture of xylazine hydrochloride (10 mg/kg, i.m.) and ketamine hydrochloride (40 mg/kg, i.m.), and needle electrodes were placed subcutaneously at the vertex (active electrode), beneath the pinna of the measured ear (reference electrode), and beneath the opposite ear (ground). The stimulus duration, presentation rate, and rise/fall time was 3 ms, 19.3/s, and 1 ms respectively. Responses of 1024 sweeps were averaged at each intensity level (5 dB steps) to access the hearing threshold. The hearing threshold was defined as the lowest intensity level at which a clear reproducible waveform was visible in the trace. Means of ABR thresholds were compared at 8, 16 and 32 kHz."}
{"smiles": "c1ccc2c(Cc3c[nH]c4ccccc34)c[nH]c2c1", "note": "[DIM, 3,3′-diindolylmethane]", "values": [{"measurement": "hearing threshold (auditory-evoked brain stem response threshold)", "setting": "8 kHz, 9 month-old D257A mice, DIM 40 mg/kg in diet, control approximately 40 dB", "result": "approximately 10 dB"}, {"measurement": "deaf mice (no auditory-evoked brainstem response)", "setting": "8 kHz, 9 month-old D257A mice, diet supplementation from weaning (DIM 40 mg/kg, EGCG 300 mg/kg), control 3 out of 8 deaf", "result": "no deaf mice"}, {"measurement": "percentage of deaf mice", "setting": "32 kH, 9 month-old D257A mice, compared to the control group and the other tested compounds", "result": "significantly lower"}, {"measurement": "effect on age related hearing loss", "setting": "supplementation from early age on, D257A mice", "result": "protective effect"}]}
